ChEMBL document CHEMBL3425474, “Biphenyl-ethyl-pyrrolidine derivatives as histamine h3 receptor modulators for the treatment of cognitive disorders” (ACS Med Chem Lett, 2015)

Biological target: Histamine H3 receptor (Homo sapiens, UniProt Q9Y5N1)
Assay: Modulation of human histamine H3 receptor expressed in HEK293 cells assessed as change in forskolin-stimulated cAMP level after 1 hr by HTRF assay
Assay type: functional, cell-based

Histamine H3 receptor, sequence (Q9Y5N1 whole entry): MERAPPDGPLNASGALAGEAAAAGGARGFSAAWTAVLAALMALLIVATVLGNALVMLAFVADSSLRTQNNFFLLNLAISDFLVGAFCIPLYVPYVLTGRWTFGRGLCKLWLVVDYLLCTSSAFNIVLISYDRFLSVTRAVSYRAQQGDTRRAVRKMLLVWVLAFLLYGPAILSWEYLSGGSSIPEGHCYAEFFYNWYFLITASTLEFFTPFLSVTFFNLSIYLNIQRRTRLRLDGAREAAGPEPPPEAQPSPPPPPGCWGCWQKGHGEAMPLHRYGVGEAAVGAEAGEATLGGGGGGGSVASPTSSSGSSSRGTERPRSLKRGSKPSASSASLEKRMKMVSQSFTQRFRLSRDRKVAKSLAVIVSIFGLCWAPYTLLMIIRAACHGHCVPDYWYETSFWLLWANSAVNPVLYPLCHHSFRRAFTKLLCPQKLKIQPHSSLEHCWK

Structure (SMILES)	IC50
C[C@@H]1CCCN1CCc1ccc(-c2ccc(NC(=O)CCC(=O)O)cc2)cc1	2.5 nM
C[C@@H](C(=O)NCCc1ccc(-c2ccc(CCN3CCC[C@H]3C)cc2)cc1)C(=O)OC(C)(C)C	2.1 nM
C[C@@H]1CCCN1CCc1ccc(-c2ccc(C3(NC(=O)CCCC(=O)O)CCCC3)cc2)cc1	2.1 nM
COC(=O)CC(=O)NCCc1ccc(-c2ccc(CCN3CCC[C@H]3C)cc2)cc1	0.99 nM
COC(=O)CCCC(=O)NC1(c2ccc(-c3ccc(CCN4CCC[C@H]4C)cc3)cc2)CCCC1	15 nM
C[C@@H]1CCCN1CCc1ccc(-c2ccc(CCNC(=O)C(C)(C)C(=O)OC(C)(C)C)cc2)cc1	0.95 nM
COC(=O)CC(=O)NC1(c2ccc(-c3ccc(CCN4CCC[C@H]4C)cc3)cc2)CCCC1	1.9 nM
COC(=O)C(C)(C)C(=O)Nc1ccc(-c2ccc(CCN3CCC[C@H]3C)cc2)cc1	1.2 nM
